Measurements: paper PMC9143003, “Neutrophil Immunomodulatory Activity of Farnesene, a Component of Artemisia dracunculus Essential Oils” (Pharmaceuticals, 2022)
Like-named read-outs stand apart in the source and are kept apart here. One block for each compound: values may come before it.

Tests used:
human neutrophils [1] = assay: Cytotoxicity assay (CellTiter-Glo), neutrophils; conditions: pure compounds, 90 min incubation, no cytotoxicity = IC50 > 55 µM
Description: We analyze cytotoxicity in human neutrophils or THP-1 monocytic cells. Cytotoxicity was analyzed using a CellTiter-Glo Luminescent Cell Viability Assay Kit (Promega, Madison, WI, USA). Briefly, the cells were incubated (10^4 cells/well) with the indicated concentrations of essential oil or compound for 90 min (for neutrophils) or 24 h (for THP-1 cells) at 37 °C/5% CO2. After incubation, we added substrate. The samples were analyzed using a Fluoroscan Ascent FL microplate reader.

human neutrophils [2] = assay: Ca2+ mobilization assay, direct activation of [Ca2+]i; format: cell-based; conditions: pure compounds; for EC50: human neutrophils, mean ± SD of three experiments, read-out: Activation of [Ca^2+]i EC50; for Effect on human neutrophil Ca^2+ flux (in words): direct effect
From the text: (§1) We obtained human neutrophils using blood collected from healthy donors. Blood collection was approved by the Institutional Review Board at Montana State University (Protocol #MQ041017). Neutrophils were isolated as described previously. The isolated neutrophils were resuspended in HBSS^–. Neutrophil preparations were routinely >95% pure and >98% viable, as determined by light microscopy and trypan blue exclusion, respectively.
(§2) Changes in intracellular Ca^2+ concentrations ([Ca^2+]i) were monitored with a FlexStation 3 (Molecular Devices, Sunnyvale, CA, USA). For these assays, neutrophils were loaded with 1.25 μg/mL Fluo-4AM and incubated in the dark at 37 °C for 30 min. The cells were then washed with HBSS^-. The dye-loaded cells were resuspended in HBSS^+ and pipetted into the wells of black microtiter plates at 2 × 10^5 cells/well. To measure the direct effects of samples on [Ca^2+]i, the test samples were added to the wells (final concentration of DMSO was 1%), and fluorescence was monitored (λex = 485 nm, λem = 538 nm). Changes in fluorescence were monitored every 5 s at room temperature for 240 s. To evaluate the inhibitory effects of the test samples, the samples were added to the wells and incubated for 10 min, with the subsequent addition of 5 nM fMLF, 5 nM WKYMVM, or 25 nM IL-8. Responses were normalized to the response induced by control 5 nM fMLF, 5 nM WKYMVM, or 25 nM IL-8 alone without pretreatment. These responses were assigned as 100%. To calculate median effective concentrations (EC50 or IC50), we used curve fitting (at least five or six points) and nonlinear regression analysis of the dose–response curves. Curve fitting was performed with Prism 9 (GraphPad Software, Inc., San Diego, CA, USA).

[3] = tested on: WKYMVM-stimulated human neutrophils (FPR2 agonist WKYMVM); assay: Inhibition of WKYMVM-induced [Ca2+]i; format: cell-based; conditions: pure compounds, 10 min pretreatment, 5 nM WKYMVM, read-out: Inhibition of [Ca^2+]i WKYMVM-Induced IC50
From the text: as §1, §2

[4] = tested on: fMLF-stimulated human neutrophils (FPR1 agonist fMLF); assay: Inhibition of fMLF-induced [Ca2+]i; format: cell-based; conditions: pure compounds, 10 min pretreatment, 5 nM fMLF, read-out: Inhibition of [Ca^2+]i fMLF-Induced IC50
From the text: as §1, §2

human neutrophils [5] = assay: Chemotaxis assay toward fMLF (ChemoTx chambers); format: cell-based; conditions: pure compounds, 30 min pretreatment, 1 nM fMLF; for IC50: read-out: Inhibition of fMLF-induced neutrophil chemotaxis IC50
From the text: as §1
To evaluate effects of samples on neutrophil migration, we resuspended neutrophils in HBSS^+ containing 2% (v/v) heat-inactivated FBS (2 × 10^6 cells/mL). We analyzed chemotaxis using 96-well ChemoTx chambers (Neuroprobe, Gaithersburg, MD). The neutrophils were first preincubated with the indicated concentrations of test samples at room temperature for 30 min. The pretreated cells were then pipetted into the chamber upper wells (4 × 10^4 cells/well). The lower wells contained 30 µL of HBSS^+ with 2% (v/v) heat-inactivated FBS, the indicated test samples or control 1% DMSO, and 1 nM fMLF as the chemoattractant. Three lower wells were reserved for background controls (DMSO treated cells in the upper wells and DMSO without fMLF in the lower wells). We allowed the cells to migrate through the polycarbonate membrane filter for 60 min at 37 °C/5% CO2. We determined the number of migrated cells by measuring ATP in lysates of transmigrated cells and comparing this to a standard curve obtained with known neutrophil numbers, as described previously. Calculation of median effective concentrations (IC50) was performed by nonlinear regression analysis of the dose-response curves.

[6] = tested on: human THP-1 monocytic cells; assay: Cytotoxicity assay (CellTiter-Glo), THP-1; format: cell-based
Description: Human THP-1 monocytic cells obtained from ATCC (Manassas, VA, USA) were cultured in RPMI 1640 medium (Mediatech Inc., Herndon, VA, USA) supplemented with 10% (v/v) FBS, 100 μg/mL streptomycin, and 100 U/mL penicillin. […] After incubation, we added substrate.

human neutrophils [7] = tested on: human neutrophils; set-up: method as in PMID 27586050, PMID 25959257; conditions: previous analysis; cited from earlier work
FPR1 = tested on: FPR1; set-up: method as in PMID 16972170, PMID 11211928, PMID 11853704; conditions: cited from earlier work
[8] = tested on: IL-8-stimulated human neutrophils; assay: Inhibition of IL-8-induced [Ca2+]i; format: cell-based; conditions: 10 min pretreatment, 25 nM human IL-8; read-out: Inhibition of IL-8 induced neutrophil [Ca^2+]i IC50
From the text: as §1
as §2, with “Responses were normalized to the response induced by control 5 nM fMLF, 5 nM WKYMVM, or 25 nM IL-8 alone without pretreatment. These responses were assigned as 100%. To calculate median effective concentrations (EC50 or IC50), we used curve fitting (at least five or six points) and nonlinear regression analysis of the dose–response curves. Curve fitting was performed with Prism 9 (GraphPad Software, Inc., San Diego, CA, USA).” left out

EC50 (human neutrophils [2]; Neutrophil): > 55 µM
IC50 ([3]; Homo sapiens, Neutrophil): > 55 µM
IC50 ([4]; Homo sapiens, Neutrophil): > 55 µM
Compound: CC12CCC(CC1)C(C)(C)O2 [1,8-Cineole]
Cytotoxicity (human neutrophils [1]): Nontoxic
Effect on human neutrophil Ca^2+ flux (in words) (human neutrophils [2]): did not affect human neutrophil Ca^2+ flux

EC50 (human neutrophils [2]): > 55 µM
IC50 [3]: > 55 µM
IC50 [4]: > 55 µM
Compound: CC12CCC(CC1=O)C2(C)C (stereo not drawn) [(+)-Camphor]
Effect on human neutrophil Ca^2+ flux (in words) (human neutrophils [2]): did not affect human neutrophil Ca^2+ flux

EC50 (human neutrophils [2]; Neutrophil): > 55 µM
IC50 ([3]; Homo sapiens, Neutrophil): > 55 µM
IC50 ([4]; Homo sapiens, Neutrophil): > 55 µM
Compound: CC1(C)[C@H]2CC[C@]1(C)C(=O)C2 [(−)-Camphor]
Cytotoxicity (human neutrophils [1]): Nontoxic
Effect on human neutrophil Ca^2+ flux (in words) (human neutrophils [2]): did not affect human neutrophil Ca^2+ flux

EC50 (human neutrophils [2]; Neutrophil): > 55 µM
IC50 ([3]; Homo sapiens, Neutrophil): > 55 µM
IC50 ([4]; Homo sapiens, Neutrophil): > 55 µM
Compound: CC1=CC(=O)C(C(C)C)CC1 (centres unmarked) [Piperitone]
Cytotoxicity (human neutrophils [1]): Nontoxic
Effect on human neutrophil Ca^2+ flux (in words) (human neutrophils [2]): did not affect human neutrophil Ca^2+ flux

EC50 (human neutrophils [2]; Neutrophil): 53.3 ± 5 µM
Inhibition of fMLF-induced neutrophil chemotaxis IC50 (human neutrophils [5]): did not affect this response
IC50 ([3]; Homo sapiens, Neutrophil): 52.7 ± 11.2 µM
IC50 ([4]; Homo sapiens, Neutrophil): 27.2 ± 6.6 µM
Compound: COc1cc(O)c(C(C)=O)c(OC)c1 [Xanthoxylin]
Cytotoxicity (human neutrophils [1]): Nontoxic
Effect on human neutrophil Ca^2+ flux (in words) (human neutrophils [2]): weak activators
Viability of human THP-1 monocytic cells ([6]; 24 h incubation): did not affect the viability

Compound: C=C1C2CCC(C2)C1(C)C (centres unmarked) [camphene]
Effect on human neutrophil [Ca^2+]i (in words) (human neutrophils [7]): no effect

Compound: C[C@H](CCC(=O)O)[C@H]1CC[C@H]2[C@@H]3[C@H](O)C[C@@H]4C[C@H](O)CC[C@]4(C)[C@H]3CC[C@]12C [chenodeoxycholic acid]
Concentrations at which FPR1 is antagonized (FPR1): > 100 µM

Compound: C[C@H](CCC(=O)O)[C@H]1CC[C@H]2[C@@H]3CC[C@@H]4C[C@H](O)CC[C@]4(C)[C@H]3C[C@H](O)[C@]12C [deoxycholic acid]
Concentrations at which FPR1 is antagonized (FPR1): > 100 µM

Compound: C=CC(C)(O)CCC=C(C)C (centres unmarked) [linalool]
Effect on human neutrophil [Ca^2+]i (in words) (human neutrophils [7]): no effect

Compound: C=CCc1ccc(OC)cc1 [methyl chavicol]
Effect on human neutrophil [Ca^2+]i (in words) (human neutrophils [7]): no effect

Compound: C=CCc1ccc(OC)c(OC)c1 [methyl eugenol]
Effect on human neutrophil [Ca^2+]i (in words) (human neutrophils [7]): no effect

Compound: Cc1ccc(C(C)(C)O)cc1 [p-cymen-8-ol]
Effect on human neutrophil [Ca^2+]i (in words) (human neutrophils [7]): no effect

Compound: Cc1ccc(C(C)C)cc1 [p-cymene]
Effect on human neutrophil [Ca^2+]i (in words) (human neutrophils [7]): no effect

Compound: CC1=CCC(O)(C(C)C)CC1 (centres unmarked) [terpinen-4-ol]
Effect on human neutrophil [Ca^2+]i (in words) (human neutrophils [7]): no effect

Compound: CC1=CCC(=C(C)C)CC1 [terpinolene]
Effect on human neutrophil [Ca^2+]i (in words) (human neutrophils [7]): no effect

Compound: CC1=CCC2CC1C2(C)C (stereo not drawn) [α-pinene]
Effect on human neutrophil [Ca^2+]i (in words) (human neutrophils [7]): no effect

EC50 (human neutrophils [2]): 50.1 ± 11.5 µM
IC50 (human neutrophils [5]): 11.9 ± 1.9 µM
IC50 [3]: 19.1 ± 0.1 µM
IC50 [4]: 42.6 ± 9.7 µM
Compound: (±)-Bornyl acetate
Effect on human neutrophil Ca^2+ flux (in words) (human neutrophils [2]): weak activators
Viability of human THP-1 monocytic cells [6]: did not affect the viability

EC50 (human neutrophils [2]): 28.5 ± 2.6 µM
IC50 (human neutrophils [5]): 3.3 ± 1.4 µM
IC50 [8]: 2600 nM
IC50 [3]: 1.4 ± 0.5 µM
IC50 [4]: 1.1 ± 0.2 µM
Compound: Farnesene
Effect on human neutrophil Ca^2+ flux (in words) (human neutrophils [2]): weak activators
Viability of human THP-1 monocytic cells [6]: did not affect the viability
